This note sets out measurements from ChEMBL document CHEMBL4811216, “Chemotherapy for human schistosomiasis: how far have we come? What's new? Where do we go from here?” (RSC Med Chem, 2020).

The subject of data set [1] is Schistosoma mansoni. Nature of the data set: Antischistosomal activity against Schistosoma mansoni Puerto-Rican incubated for 72 hrs by inverted microscopic method. Format: functional, organism-based.
The subject of data set [2] is Schistosoma mansoni. Nature of the data set: Antischistosomal activity against Schistosoma mansoni infected in NMRI mouse assessed as worm burden reduction at 400 mg/kg, po administered […] for 4 consecutive days and measured after 14 days relative to control. Format: functional. Also on record: scale not given: the % may be the effect or the level left. As to conditions: time 14 day.

Data set [3] deals with Schistosoma mansoni. Nature of the data set: microbe, parasite or virus in culture. As to conditions: Liberian, 72 h.
Description: Antischistosomal activity against Schistosoma mansoni Liberian NTS incubated for 72 hrs by microscopic method
Data set [4] has as its system Schistosoma mansoni. Nature of the data set: Antischistosomal activity against Schistosoma mansoni Egyptian assessed as worm mortality incubated for 5 days by stereomicroscopic method. Format: functional, organism-based. As to conditions: 120 h; for IC90: time 5 day.
Data set [5] has as its system Schistosoma mansoni. Nature of the data set: Antischistosomal activity against Schistosoma mansoni assessed as worm mortality at 5 ug/ml incubated for 5 days by stereomicroscopic method relative to control. The format is functional. As to conditions: 120 h, time 5 day.
Data set [6] concerns Schistosoma mansoni. Nature of the data set: Antischistosomal activity against Schistosoma mansoni Puerto-Rican assessed as worm mortality incubated for 5 days by stereomicroscopic method. The format is functional, organism-based. To be noted: 120 h; for IC90: time 5 day.
A short description of data set [7]: Cytotoxicity against Biomphalaria alexandrina incubated for 24 hrs relative to control. Details: concentration or dose not given beside the values.
Data set [8] is described as follows: Cytotoxicity against Biomphalaria alexandrina incubated for 24 hrs.
Data set [9] concerns Schistosoma mansoni. Nature of the data set: Antischistosomal activity against adult Schistosoma mansoni LE assessed as reduction in motor activity at 50 uM measured after 24 hrs by inverted microscopy relative to control. The format is functional. Details: scale not given: the % may be the effect or the level left.
The subject of data set [10] is Schistosoma mansoni. Nature of the data set: Antischistosomal activity against Schistosoma mansoni Liberian infected in NMRI mouse assessed as worm burden reduction at 200 mg/kg, po measured after 14 days relative to control. Format: functional. Also on record: scale not given: the % may be the effect or the level left. As to conditions: time 14 day.
Data set [11] deals with Schistosoma mansoni. Nature of the data set: microbe, parasite or virus in culture. To be noted: 72 h.
Description: Antischistosomal activity against Schistosoma mansoni incubated for 72 hrs by inverted microscopic method
Data set [12] deals with Schistosoma mansoni. Nature of the data set: Antischistosomal activity against Schistosoma mansoni infected in NMRI mouse assessed as worm burden reduction at 200 mg/kg, po administered as single dose and measured after 17 to 21 days relative to control. The format is functional, organism-based. Also on record: scale not given: the % may be the effect or the level left. To be noted: time 17-21 day.

In data set [13] the test system is Schistosoma haematobium. Nature of the data set: Antischistosomal activity against Schistosoma haematobium at 10 uM measured after 72 hrs relative to control. Format: functional.
For data set [14], the system named is Schistosoma mansoni. Nature of the data set: Antischistosomal activity against Schistosoma mansoni Puerto Rican schistosomula assessed as effect on worm phenotype measured after 72 hrs. Format: functional, organism-based.
Data set [15] has as its system Schistosoma mansoni. Nature of the data set: Antischistosomal activity against Schistosoma mansoni Puerto Rican schistosomula assessed as effect on worm motility measured after 72 hrs. Format: functional, organism-based.

Regarding `O=C(CCl)NCCOc1ccc(Cl)cc1Cl`, the IC50 (as a rule, the point on the concentration scale where inhibition reaches its midpoint) in data set [1] came to 3400 nM; in data set [3], 1800 nM. In addition, the Activity in [2] amounted to 1.8%.

On to `CN(C)CCNc1c2c3ccccc3nc-2n(C)c2ccc(Cl)cc12`, for which, in [4], the IC50 was 3.68 µM and the IC90 (as a rule, the concentration needed for an effect of 90%) was 7.65 µM. Also, in data set [5], the mortality (as a rule, the share of the test organisms that died) at 5 µg/mL is 100%. In data set [6], the half-maximal inhibitory concentration (IC50) amounted to 5.95 µM and the IC90 was found to be 13 µM. For the same compound, the mortality in [7] is listed as 100%. In data set [8], the LC50 (in general, the concentration lethal to half of the exposed cells or organisms) turned out to be 1470 nM and the LC90 turned out to be 2.12 µM.

On to `COc1cc(C[C@@H]2C(=O)OC[C@H]2Cc2ccc3c(c2)OCO3)cc(OC)c1OC`, for which the Activity in data set [9] is listed as above 75%.

In the case of `O[C@@H](c1cc(-c2ccc(C(F)(F)F)cc2)nc(C(F)(F)F)c1)[C@@H]1CCCCN1`, the Activity in data set [10] is above 82%.

For `O[C@H](c1cc(-c2ccc(C(F)(F)F)cc2)nc(C(F)(F)F)c1)[C@H]1CCCCN1`, the Activity in data set [10] was above 82%.

For `COc1ccc(Oc2ccc([C@H](C)N(C)c3ncc4c(N)nc(N)nc4n3)cc2)cc1`, the half-maximal inhibitory concentration (IC50) is 7.9 µM in data set [11] and 16700 nM in data set [3]. Besides, the Activity in data set [12] was 32.8%; in data set [13], 50.9%.

For the compound `O=C1OC[C@@H](Cc2ccc3c(c2)OCO3)[C@@H]1Cc1ccc2c(c1)OCO2`, in data set [9], the Activity is above 75%.

`Brc1ccc(Nc2nc3ccccc3nc2Nc2ccc(Br)cc2)cc1`: the half-maximal inhibitory concentration (IC50) in data set [1] came out at 800 nM. Moreover, in [2], the Activity is reported as 40.8%.

Consider `C=C[C@](C)(O)CCC1[C@](C)(O)CC[C@H]2C(C)(C)CCC[C@]12C` (some centres undefined), for which the half-maximal inhibitory concentration (IC50) in data set [14] turned out to be 14.2 µM; in data set [15], 12.3 µM.

Consider `CN1CCC(NCc2cccc(-c3ccc(S(=O)(=O)NCc4ccccc4)cc3)c2)CC1`, for which the IC50 in data set [11] worked out at 3 µM; in data set [3] it was 2600 nM. For the same compound, the Activity in data set [12] worked out at 67.8%; in data set [13] it was 75.4%.

As to `CC1(C)CCC[C@]2(C)C(CC[C@@](C)(O)/C=C/c3ccccc3)[C@](C)(O)CC[C@@H]12` (some centres undefined), the IC50 in data set [14] and in [15] was below 10 µM each time.

On to `Cn1c2nc3ccccc3c-2c(N2CCN(CCO)CC2)c2cc(Cl)ccc21`, for which, in data set [4], the IC50 is 1.77 µM and the IC90 was 4.55 µM. The mortality at 5 µg/mL in data set [5] came out at 100%. Also, in data set [6], the concentration for half-maximal inhibition (IC50) came out at 3.29 µM and the concentration for an effect of 90% (IC90) stood at 5.57 µM. The mortality in [7] is 100%. Further, in [8], the LC50 turned out to be 3900 nM and the LC90 was 4.8 µM.

Take `COc1ccc(Nc2nc(NCc3ccccc3)c3ccccc3n2)cc1`: the IC50 in data set [1] worked out at 800 nM; in data set [3], 2700 nM. Also, in data set [2], the Activity is 0%.

Regarding `CN1CCN(c2c3cc(Cl)ccc3nc3[nH]c4ccccc4c23)CC1`, in [4], the IC50 turned out to be 5.41 µM and the IC90 stood at 13.7 µM. In addition, in data set [5], the mortality at 5 µg/mL was 100%. Besides, in data set [6], the IC50 was 6.27 µM and the concentration for an effect of 90% (IC90) came out at 17.9 µM. Also, in data set [7], the mortality is listed as 100%. For the same compound, in data set [8], the LC50 came to 630 nM and the LC90 was 0.91 µM.

Take `CCN(CC)CCCC(C)Nc1c2c3ccccc3nc-2n(C)c2ccc(Cl)cc12` (centres undefined): in data set [4], the IC50 amounted to 11.7 µM and the concentration for an effect of 90% (IC90) amounted to 16.8 µM. Further, in data set [5], the mortality at 5 µg/mL worked out at 100%. In addition, in data set [6], the IC50 is 15 µM and the IC90 stood at 21.7 µM.

On to `CC1(C)CCC[C@]2(C)C(CC[C@@](C)(O)/C=C/c3cccc(Cl)c3)[C@](C)(O)CC[C@@H]12` (some centres undefined), for which the IC50 in data set [14] and in data set [15] was below 10 µM in each case.

As for `OC(c1cc(-c2ccc(C(F)(F)F)cc2)nc(C(F)(F)F)c1)C1CCCCN1` (centres undefined) [ENPIROLINE], the Activity in data set [10] is recorded as above 82%.

In the case of `Clc1cc(Br)ccc1-c1ccc(CNCC2CCNCC2)o1`, the IC50 in [1] stood at 6300 nM; in data set [3], 3400 nM. Also, the Activity in data set [2] is 18.7%.

Regarding `CS(=O)(=O)c1ccc(C(=O)N(CC2CCCO2)c2nc3ccccc3s2)cc1[N+](=O)[O-]` (centres undefined), the figures for the IC50 in data set [11] and in [3] were 3.7 µM and 400 nM, respectively. In addition, the Activity in data set [12] was 55.2%; in [13], 90.8%.

With `CCN(CC)CCCC(C)Nc1c2c3ccccc3nc-2n(C)c2cc(Cl)ccc12` (centres undefined), the IC50 worked out at 19.3 µM in [4] and 29.3 µM in data set [6]. Also, the IC90 amounted to 24.3 µM in [4] and 32.8 µM in data set [6]. The mortality at 5 µg/mL in data set [5] is 100%.

Take `O[C@@H]1OC[C@@H](Cc2ccc3c(c2)OCO3)[C@@H]1Cc1ccc2c(c1)OCO2`: the Activity in data set [9] is above 75%.

`Cn1c2nc3ccccc3c-2c(NCCN2CCCC2)c2cc(Cl)ccc21` displayed a mortality in data set [7] of 100%. For the same compound, in data set [8], the LC50 worked out at 1740 nM and the LC90 was 2.64 µM.

In the case of `O=C(Nc1ccc(Cl)c(Cl)c1)Nc1ccc(Cl)c(Cl)c1`, in [2], the Activity is 52.5%. Further, the IC50 in [3] is 4700 nM.

For `Cn1c2nc3ccccc3c-2c(N2CCC(N3CCCCC3)CC2)c2cc(Cl)ccc21`, in data set [4], the half-maximal inhibitory concentration (IC50) amounted to 3.46 µM and the IC90 came to 8.31 µM. In data set [5], the mortality at 5 µg/mL came to 100%. Also, in data set [6], the IC50 was 7.85 µM and the IC90 is 13.4 µM. Moreover, the mortality in [7] is 100%. In data set [8], this compound showed an LC50 of 2600 nM and an LC90 of 3.5 µM.

`Cn1c2nc3ccccc3c-2c(NCCN2CCOCC2)c2cc(Cl)ccc21`: in [4], the IC50 came to 1.26 µM and the IC90 came to 4.05 µM. Besides, the mortality at 5 µg/mL in [5] was found to be 100%. In [6], the IC50 was determined as 3.54 µM and the 90% effect concentration (IC90) came to 6.83 µM. The same compound registered a mortality in data set [7] of 100%. In data set [8], this compound returned an LC50 of 1300 nM and an LC90 of 2.2 µM.

As to `Clc1ccc2nc3[nH]c4ccccc4c3c(NCCN3CCOCC3)c2c1`, in data set [4], the IC50 is 3.41 µM and the IC90 was determined as 6.3 µM. Moreover, in data set [5], the mortality at 5 µg/mL is 100%. Also, in [6], the IC50 was determined as 7.61 µM and the concentration for an effect of 90% (IC90) stood at 11 µM.

Turning to `O=C(Nc1ccc(N2CCNCC2)cc1)c1ccn2ncc(-c3cccc(Cl)c3)c2n1`, the IC50 was determined as 2 µM in [11] and 600 nM in data set [3]. Moreover, the values for the Activity in [12] and in [13] were 70.7% and 100%, respectively.

For the compound `CCN1CCCC1CNc1c2c3ccccc3nc-2n(C)c2ccc(Cl)cc12` (centres undefined), in data set [7], the mortality stood at 100%. In [8], this compound came in with an LC50 of 2950 nM and an LC90 of 4.1 µM.

Consider `CC1(C)CCC[C@]2(C)C(CC[C@@](C)(O)/C=C/c3ccc(Cl)cc3)[C@](C)(O)CC[C@@H]12` (some centres undefined), for which the 50% inhibitory concentration (IC50) in data set [14] and in data set [15] was below 10 µM in each case.
